US20030040540A1, “Bromonitrothienyldioxanes” (priority 2001, published 2003)
Values after ≈ are worked out from the molar mass of the structure shown.

Assays:
Penicillium brevicaule = assay: MIC against fungi on malt extract agar (Use Example B); assay type: cell-based; details: 2 weeks at 28° C., 60 to 70% relative atmospheric humidity, no colonization whatsoever; for MIC: Penicillium, 336 h, read-out: Minimum inhibitory concentrations Penicillium brevicaule
Experimental: (§1) The MIC was determined after 2 weeks of storage at 28° C. and 60 to 70% relative atmospheric humidity.

Chaetomium globusum = assay: as above; assay type: cell-based; details: 2 weeks at 28° C., 60 to 70% relative atmospheric humidity, no colonization whatsoever; for MIC: Chaetomium, 336 h, read-out: Minimum inhibitory concentrations Chaetomium globusum
Experimental: as §1

Aspergillus niger = assay: as above; assay type: cell-based; details: 2 weeks at 28° C., 60 to 70% relative atmospheric humidity, no colonization whatsoever; for MIC: Aspergillus niger, 336 h, read-out: Minimum inhibitory concentrations Aspergillus niger
Experimental: as §1

Bacillus subtilis = assay: MIC against bacteria on Landy agar (Use Example A); assay type: cell-based; details: 3 days at 28° C., 60 to 70% relative atmospheric humidity, no colonization whatsoever; for MIC: Bacillus subtilis, 72 h, read-out: Minimum inhibitory concentrations Bacillus subtilis
Experimental: (§2) The MIC was determined after 3 days of storage at 28° C. and 60 to 70% relative atmospheric humidity.

Pseudomonas aeroginosa = assay: MIC against bacteria on Landy agar (Use Example A); assay type: cell-based; details: 3 days at 28° C., 60 to 70% relative atmospheric humidity, no colonization whatsoever; for MIC: Pseudomonas, 72 h, read-out: Minimum inhibitory concentrations Pseudomonas aeroginosa
Experimental: as §2

SMILES: Cc1ccsc1C1OCC(Br)([N+](=O)[O-])CO1 (stereo not shown) [Example 5]
- Minimum inhibitory concentrations Penicillium brevicaule (Penicillium brevicaule): <40 ppm
- Minimum inhibitory concentrations Chaetomium globusum (Chaetomium globusum): <40 ppm
- Minimum inhibitory concentrations Aspergillus niger (Aspergillus niger): 200 ppm

SMILES: O=[N+]([O-])c1ccc(C2OCC(Br)([N+](=O)[O-])CO2)s1 (stereo not shown) [Example 7]
- Minimum inhibitory concentrations Penicillium brevicaule (Penicillium brevicaule): <40 ppm
- Minimum inhibitory concentrations Chaetomium globusum (Chaetomium globusum): 100 ppm
- Minimum inhibitory concentrations Aspergillus niger (Aspergillus niger): 200 ppm
- Minimum inhibitory concentrations Bacillus subtilis (Bacillus subtilis): <40 ppm
- Minimum inhibitory concentrations Pseudomonas aeroginosa (Pseudomonas aeroginosa): 200 ppm

SMILES: O=[N+]([O-])C1(Br)COCOC1 [5-bromo-5-nitro-1,3-dioxane, reference compound]
- MIC (Chaetomium globusum): 500 µg/mL (≈ 2360 µM)
- MIC (Aspergillus niger): 1000 µg/mL (≈ 4720 µM)
- MIC (Pseudomonas aeroginosa): 750 µg/mL (≈ 3540 µM)

SMILES: Cc1ccc(C2OCC(Br)([N+](=O)[O-])CO2)s1 (stereo not shown) [Example 4]
- Minimum inhibitory concentrations Penicillium brevicaule (Penicillium brevicaule): <40 ppm
- Minimum inhibitory concentrations Chaetomium globusum (Chaetomium globusum): 100 ppm
- Minimum inhibitory concentrations Aspergillus niger (Aspergillus niger): 200 ppm

SMILES: O=[N+]([O-])C1(Br)COC(c2ccc(Br)s2)OC1 (stereo not shown) [Example 3]
- Minimum inhibitory concentrations Penicillium brevicaule (Penicillium brevicaule): <40 ppm
- Minimum inhibitory concentrations Chaetomium globusum (Chaetomium globusum): 100 ppm
- Minimum inhibitory concentrations Aspergillus niger (Aspergillus niger): 200 ppm

SMILES: O=[N+]([O-])C1(Br)COC(c2ccc(Cl)s2)OC1 (stereo not shown) [Example 2, 5-bromo-2-(5-chloro-2-thienyl)-5-nitro-1,3-dioxane]
- melting point: 55 to 57 °C
- MIC (Penicillium brevicaule): < 40 µg/mL
- MIC (Chaetomium globusum): < 40 µg/mL
- MIC (Aspergillus niger): 100 µg/mL (≈ 304 µM)
- MIC (Bacillus subtilis): < 40 µg/mL
- MIC (Pseudomonas aeroginosa): 100 µg/mL (≈ 304 µM)

SMILES: O=[N+]([O-])C1(Br)COC(c2cccs2)OC1 (stereo not shown) [Example 1, 5-bromo-5-nitro-2-(2-thienyl)-1,3-dioxane]
- MIC (Penicillium brevicaule): < 40 µg/mL
- MIC (Chaetomium globusum): 100 µg/mL (≈ 340 µM)
- MIC (Aspergillus niger): 200 µg/mL (≈ 680 µM)
- MIC (Bacillus subtilis): < 40 µg/mL
- MIC (Pseudomonas aeroginosa): 100 µg/mL (≈ 340 µM)

SMILES: O=[N+]([O-])c1sc(C2OCC(Br)([N+](=O)[O-])CO2)cc1Br (stereo not shown) [Example 8]
- Minimum inhibitory concentrations Penicillium brevicaule (Penicillium brevicaule): 200 ppm
- Minimum inhibitory concentrations Chaetomium globusum (Chaetomium globusum): 400 ppm
- Minimum inhibitory concentrations Aspergillus niger (Aspergillus niger): >400 ppm
